Test system: Alternaria solani
Test: Test F: tomato early blight, preventive spray on tomato seedlings
Format: in vivo
Conditions: 50 ppm, 100 = 100% disease control, 0 = no control
Method in brief: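 Preventive test: one day after the compound spray, seedlings were inoculated with A. solani, incubated saturated at 27 °C for 48 h, then kept at 20 °C for 3 days. Test suspensions contained acetone/water 50/50 with 250 ppm PEG400 surfactant. Visual ratings run from 0 (no control) to 100 (full control).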

| SMILES | Test F disease control rating |
| --- | --- |
| CCc1nn(C)c(Nc2c(F)cccc2[N+](=O)[O-])c1-c1c(F)cc(Cl)cc1F [compound 170] | 99% |
| CCc1nn(C)c(Nc2c(F)cc(Br)cc2[N+](=O)[O-])c1-c1ccc(F)cc1F [compound 171] | 88% |
| CCc1nn(C)c(Nc2ccc(OC)cc2[N+](=O)[O-])c1-c1ccc(F)cc1Cl [compound 173] | 93% |
| CCc1nn(C)c(Nc2ccc(C)cc2[N+](=O)[O-])c1-c1ccc(F)cc1Cl [compound 174] | 39% |
| CCc1nn(C)c(Nc2ccc(C)cc2[N+](=O)[O-])c1-c1ccc(F)cc1F [compound 175] | 0% |
| Cc1nn(C)c(Nc2c(Cl)cc(F)cc2[N+](=O)[O-])c1-c1ccc(Cl)cc1F [compound 176] | 0% |
| Cc1cccc([N+](=O)[O-])c1Nc1c(-c2ccc(F)cc2F)c(C)nn1C [compound 177] | 9% |
| Cc1cc(F)c(Nc2c(-c3ccc(F)cc3F)c(C)nn2C)c([N+](=O)[O-])c1 [compound 178] | 100% |
| COc1ccc(Nc2c(-c3ccc(C#N)cc3F)c(C)nn2C)c([N+](=O)[O-])c1 [compound 179] | 85% |
| COc1ccc(Nc2c(-c3ccc(C#N)cc3Br)c(C)nn2C)c([N+](=O)[O-])c1 [compound 180] | 98% |
| Cc1cc(Cl)c(Nc2c(-c3ccc(F)cc3Br)c(C)nn2C)c([N+](=O)[O-])c1 [compound 181] | 99% |

Test system: Puccinia recondita f. sp. tritici
Test: Test B: wheat leaf rust, preventive spray on wheat seedlings
Format: in vivo
Conditions: 50 ppm, 100 = 100% disease control, 0 = no control
Method in brief: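 Preventive test: compound in acetone/water 50/50 with 250 ppm PEG400 was sprayed onto wheat seedlings one day before inoculation with leaf rust spores. After 24 h in saturated air and 7 days in a growth chamber, both at 20 °C, disease control was scored from 0 to 100 against controls.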

| SMILES | Test B disease control rating |
| --- | --- |
| CCc1nn(C)c(Nc2c(F)cccc2[N+](=O)[O-])c1-c1c(F)cc(Cl)cc1F [compound 170] | 99% |
| CCc1nn(C)c(Nc2c(F)cc(Br)cc2[N+](=O)[O-])c1-c1ccc(F)cc1F [compound 171] | 91% |
| CCc1nn(C)c(Nc2ccc(OC)cc2[N+](=O)[O-])c1-c1ccc(F)cc1Cl [compound 173] | 100% |
| CCc1nn(C)c(Nc2ccc(C)cc2[N+](=O)[O-])c1-c1ccc(F)cc1Cl [compound 174] | 95% |
| CCc1nn(C)c(Nc2ccc(C)cc2[N+](=O)[O-])c1-c1ccc(F)cc1F [compound 175] | 86% |
| Cc1nn(C)c(Nc2c(Cl)cc(F)cc2[N+](=O)[O-])c1-c1ccc(Cl)cc1F [compound 176] | 97% |
| Cc1cccc([N+](=O)[O-])c1Nc1c(-c2ccc(F)cc2F)c(C)nn1C [compound 177] | 97% |
| Cc1cc(F)c(Nc2c(-c3ccc(F)cc3F)c(C)nn2C)c([N+](=O)[O-])c1 [compound 178] | 100% |
| COc1ccc(Nc2c(-c3ccc(C#N)cc3F)c(C)nn2C)c([N+](=O)[O-])c1 [compound 179] | 96% |
| COc1ccc(Nc2c(-c3ccc(C#N)cc3Br)c(C)nn2C)c([N+](=O)[O-])c1 [compound 180] | 98% |
| Cc1cc(Cl)c(Nc2c(-c3ccc(F)cc3Br)c(C)nn2C)c([N+](=O)[O-])c1 [compound 181] | 100% |

Test system: Botrytis cinerea
Test: Test E: tomato Botrytis, preventive spray on tomato seedlings
Format: in vivo
Conditions: 50 ppm, 100 = 100% disease control, 0 = no control
Method in brief: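 Preventive test: seedlings sprayed to run-off with compound in acetone/water (50/50) plus 250 ppm PEG400, inoculated one day later with B. cinerea spores. Held 48 h saturated at 20° C, then 3 days at 24° C; disease control scored visually from 0 to 100 versus controls.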

| SMILES | Test E disease control rating |
| --- | --- |
| CCc1nn(C)c(Nc2c(F)cccc2[N+](=O)[O-])c1-c1c(F)cc(Cl)cc1F [compound 170] | 100% |
| CCc1nn(C)c(Nc2c(F)cc(Br)cc2[N+](=O)[O-])c1-c1ccc(F)cc1F [compound 171] | 97% |
| CCc1nn(C)c(Nc2ccc(OC)cc2[N+](=O)[O-])c1-c1ccc(F)cc1Cl [compound 173] | 98% |
| CCc1nn(C)c(Nc2ccc(C)cc2[N+](=O)[O-])c1-c1ccc(F)cc1Cl [compound 174] | 99% |
| CCc1nn(C)c(Nc2ccc(C)cc2[N+](=O)[O-])c1-c1ccc(F)cc1F [compound 175] | 88% |
| Cc1nn(C)c(Nc2c(Cl)cc(F)cc2[N+](=O)[O-])c1-c1ccc(Cl)cc1F [compound 176] | 9% |
| Cc1cccc([N+](=O)[O-])c1Nc1c(-c2ccc(F)cc2F)c(C)nn1C [compound 177] | 100% |
| Cc1cc(F)c(Nc2c(-c3ccc(F)cc3F)c(C)nn2C)c([N+](=O)[O-])c1 [compound 178] | 100% |
| COc1ccc(Nc2c(-c3ccc(C#N)cc3F)c(C)nn2C)c([N+](=O)[O-])c1 [compound 179] | 99% |
| COc1ccc(Nc2c(-c3ccc(C#N)cc3Br)c(C)nn2C)c([N+](=O)[O-])c1 [compound 180] | 99% |
| Cc1cc(Cl)c(Nc2c(-c3ccc(F)cc3Br)c(C)nn2C)c([N+](=O)[O-])c1 [compound 181] | 99% |

Test system: Septoria tritici
Test: Test A: wheat leaf blotch, preventive spray on wheat seedlings
Format: in vivo
Conditions: 50 ppm, 100 = 100% disease control, 0 = no control
Method in brief: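 Preventive test: one day after spraying seedlings to run-off (concentrations in ppm; acetone/water, 250 ppm PEG400), Septoria tritici spores applied. Scored after 48 h humid incubation at 24 °C plus 17 days at 20 °C, as percent disease control versus untreated controls (100 = full control).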

| SMILES | Test A disease control rating |
| --- | --- |
| CCc1nn(C)c(Nc2c(F)cccc2[N+](=O)[O-])c1-c1c(F)cc(Cl)cc1F [compound 170] | 100% |
| CCc1nn(C)c(Nc2c(F)cc(Br)cc2[N+](=O)[O-])c1-c1ccc(F)cc1F [compound 171] | 100% |
| CCc1nn(C)c(Nc2ccc(OC)cc2[N+](=O)[O-])c1-c1ccc(F)cc1Cl [compound 173] | 100% |
| CCc1nn(C)c(Nc2ccc(C)cc2[N+](=O)[O-])c1-c1ccc(F)cc1Cl [compound 174] | 100% |
| CCc1nn(C)c(Nc2ccc(C)cc2[N+](=O)[O-])c1-c1ccc(F)cc1F [compound 175] | 100% |
| Cc1nn(C)c(Nc2c(Cl)cc(F)cc2[N+](=O)[O-])c1-c1ccc(Cl)cc1F [compound 176] | 100% |
| Cc1cccc([N+](=O)[O-])c1Nc1c(-c2ccc(F)cc2F)c(C)nn1C [compound 177] | 100% |
| Cc1cc(F)c(Nc2c(-c3ccc(F)cc3F)c(C)nn2C)c([N+](=O)[O-])c1 [compound 178] | 100% |
| COc1ccc(Nc2c(-c3ccc(C#N)cc3F)c(C)nn2C)c([N+](=O)[O-])c1 [compound 179] | 100% |
| COc1ccc(Nc2c(-c3ccc(C#N)cc3Br)c(C)nn2C)c([N+](=O)[O-])c1 [compound 180] | 100% |
| Cc1cc(Cl)c(Nc2c(-c3ccc(F)cc3Br)c(C)nn2C)c([N+](=O)[O-])c1 [compound 181] | 100% |

Test system: Blumeria graminis f. sp. tritici
Test: Test C: wheat powdery mildew, preventive spray on wheat seedlings
Format: in vivo
Conditions: 50 ppm, 100 = 100% disease control, 0 = no control
Method in brief: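 Preventive test: inoculation with spore dust came one day after spraying seedlings to run-off with ppm suspensions in acetone/water (50/50) plus 250 ppm PEG400 surfactant. Visual ratings after 8 days' incubation at 20° C give percent disease control relative to controls.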

| SMILES | Test C disease control rating |
| --- | --- |
| CCc1nn(C)c(Nc2c(F)cccc2[N+](=O)[O-])c1-c1c(F)cc(Cl)cc1F [compound 170] | 99% |
| CCc1nn(C)c(Nc2c(F)cc(Br)cc2[N+](=O)[O-])c1-c1ccc(F)cc1F [compound 171] | 99% |
| CCc1nn(C)c(Nc2ccc(OC)cc2[N+](=O)[O-])c1-c1ccc(F)cc1Cl [compound 173] | 98% |
| CCc1nn(C)c(Nc2ccc(C)cc2[N+](=O)[O-])c1-c1ccc(F)cc1Cl [compound 174] | 92% |
| CCc1nn(C)c(Nc2ccc(C)cc2[N+](=O)[O-])c1-c1ccc(F)cc1F [compound 175] | 79% |
| Cc1nn(C)c(Nc2c(Cl)cc(F)cc2[N+](=O)[O-])c1-c1ccc(Cl)cc1F [compound 176] | 0% |
| Cc1cccc([N+](=O)[O-])c1Nc1c(-c2ccc(F)cc2F)c(C)nn1C [compound 177] | 50% |
| Cc1cc(F)c(Nc2c(-c3ccc(F)cc3F)c(C)nn2C)c([N+](=O)[O-])c1 [compound 178] | 99% |
| COc1ccc(Nc2c(-c3ccc(C#N)cc3F)c(C)nn2C)c([N+](=O)[O-])c1 [compound 179] | 93% |
| COc1ccc(Nc2c(-c3ccc(C#N)cc3Br)c(C)nn2C)c([N+](=O)[O-])c1 [compound 180] | 79% |
| Cc1cc(Cl)c(Nc2c(-c3ccc(F)cc3Br)c(C)nn2C)c([N+](=O)[O-])c1 [compound 181] | 99% |

Test system: Phakopsora pachyrhizi
Test: Test D: Asian soybean rust, preventive spray on soybean seedlings
Format: in vivo
Conditions: 50 ppm, 100 = 100% disease control, 0 = no control
Method in brief: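 Compounds in acetone/water (50/50) with 250 ppm PEG400, dosed in ppm, sprayed to run-off on soybean seedlings; inoculated with P. pachyrhizi spores next day. Held 24 h at 22 °C in saturated air, then 8 days at 22 °C; visual rating of disease control, 0–100, relative to untreated controls.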

| SMILES | Test D disease control rating |
| --- | --- |
| CCc1nn(C)c(Nc2c(F)cccc2[N+](=O)[O-])c1-c1c(F)cc(Cl)cc1F [compound 170] | 0% |
| CCc1nn(C)c(Nc2c(F)cc(Br)cc2[N+](=O)[O-])c1-c1ccc(F)cc1F [compound 171] | 0% |
| CCc1nn(C)c(Nc2ccc(OC)cc2[N+](=O)[O-])c1-c1ccc(F)cc1Cl [compound 173] | 0% |
| CCc1nn(C)c(Nc2ccc(C)cc2[N+](=O)[O-])c1-c1ccc(F)cc1Cl [compound 174] | 0% |
| CCc1nn(C)c(Nc2ccc(C)cc2[N+](=O)[O-])c1-c1ccc(F)cc1F [compound 175] | 0% |
| Cc1nn(C)c(Nc2c(Cl)cc(F)cc2[N+](=O)[O-])c1-c1ccc(Cl)cc1F [compound 176] | 0% |
| Cc1cccc([N+](=O)[O-])c1Nc1c(-c2ccc(F)cc2F)c(C)nn1C [compound 177] | 0% |
| Cc1cc(F)c(Nc2c(-c3ccc(F)cc3F)c(C)nn2C)c([N+](=O)[O-])c1 [compound 178] | 97% |
| COc1ccc(Nc2c(-c3ccc(C#N)cc3F)c(C)nn2C)c([N+](=O)[O-])c1 [compound 179] | 0% |
| COc1ccc(Nc2c(-c3ccc(C#N)cc3Br)c(C)nn2C)c([N+](=O)[O-])c1 [compound 180] | 0% |
| Cc1cc(Cl)c(Nc2c(-c3ccc(F)cc3Br)c(C)nn2C)c([N+](=O)[O-])c1 [compound 181] | 78% |
